Experimental data: patent US20240270821A1, “GIP/GLP1/GCG TRI-RECEPTOR AGONISTS AND USES THEREOF” (priority 2023, published 2024)
Starred links: 1 amine or outer side, 2 acyl side, 3 side chain; linkers in the order of their positions; H or OH if unused. Non-standard residues stand in square brackets, D forms with d. Groups on a side chain read outwards from the residue. *: point of attachment. C18 diacid = O=C(O)CCCCCCCCCCCCCCCCC(=O)*; γGlu = O=C(O)[C@H](CCC(=O)[*:2])N[*:1]; αMe4Pal = C[C@](N)(Cc1ccncc1)C(=O)O; αMeY = C[C@](N)(Cc1ccc(O)cc1)C(=O)O; 4Pal = N[C@@H](Cc1ccncc1)C(=O)O; αMeL = CC(C)C[C@](C)(N)C(=O)O; Orn = NCCC[C@H](N)C(=O)O; Aib = CC(C)(N)C(=O)O

How the values were obtained:
Assay type in all cases: cell-based
[1] = molecular target: T1, hGLP-1R (Homo sapiens, UniProt P43220); assay: Functional cAMP activity in the presence of 1% HSA; conditions: read-out: cAMP Rel EC50, hGLP-1R
T1 sequence (P43220 24-463): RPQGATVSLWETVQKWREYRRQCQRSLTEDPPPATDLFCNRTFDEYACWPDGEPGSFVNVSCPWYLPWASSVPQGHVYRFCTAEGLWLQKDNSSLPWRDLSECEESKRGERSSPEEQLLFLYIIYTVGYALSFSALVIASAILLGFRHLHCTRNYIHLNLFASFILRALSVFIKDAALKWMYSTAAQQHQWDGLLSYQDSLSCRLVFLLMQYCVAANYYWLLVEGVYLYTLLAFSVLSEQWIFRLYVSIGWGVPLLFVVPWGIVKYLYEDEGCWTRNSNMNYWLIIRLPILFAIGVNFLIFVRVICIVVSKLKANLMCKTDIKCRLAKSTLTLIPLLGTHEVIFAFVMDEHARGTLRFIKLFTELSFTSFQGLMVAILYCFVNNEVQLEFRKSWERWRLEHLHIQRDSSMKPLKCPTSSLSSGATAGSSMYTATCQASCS

[2] = molecular target: T2, hGIPR (Homo sapiens, UniProt P48546); assay: Functional cAMP activity in the presence of 1% HSA; conditions: read-out: cAMP Rel EC50, hGIPR
T2 sequence (P48546 22-466): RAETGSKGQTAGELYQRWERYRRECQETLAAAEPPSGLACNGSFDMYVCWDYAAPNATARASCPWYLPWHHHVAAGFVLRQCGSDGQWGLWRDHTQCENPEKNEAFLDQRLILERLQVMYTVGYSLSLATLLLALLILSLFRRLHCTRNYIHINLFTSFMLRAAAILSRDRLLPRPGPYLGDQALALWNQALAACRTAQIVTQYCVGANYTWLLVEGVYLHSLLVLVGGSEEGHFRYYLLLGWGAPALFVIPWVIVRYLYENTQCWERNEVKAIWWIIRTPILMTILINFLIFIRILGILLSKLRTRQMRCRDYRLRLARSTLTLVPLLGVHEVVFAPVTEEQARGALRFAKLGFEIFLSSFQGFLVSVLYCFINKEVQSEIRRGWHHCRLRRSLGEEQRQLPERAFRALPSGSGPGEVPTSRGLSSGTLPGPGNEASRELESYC

[3] = molecular target: human GcgR (Homo sapiens, UniProt P47871); assay: Functional cAMP activity in the presence of 1% HSA; conditions: read-out: cAMP Rel EC50, hGcgR
human GcgR, sequence (P47871 26-477): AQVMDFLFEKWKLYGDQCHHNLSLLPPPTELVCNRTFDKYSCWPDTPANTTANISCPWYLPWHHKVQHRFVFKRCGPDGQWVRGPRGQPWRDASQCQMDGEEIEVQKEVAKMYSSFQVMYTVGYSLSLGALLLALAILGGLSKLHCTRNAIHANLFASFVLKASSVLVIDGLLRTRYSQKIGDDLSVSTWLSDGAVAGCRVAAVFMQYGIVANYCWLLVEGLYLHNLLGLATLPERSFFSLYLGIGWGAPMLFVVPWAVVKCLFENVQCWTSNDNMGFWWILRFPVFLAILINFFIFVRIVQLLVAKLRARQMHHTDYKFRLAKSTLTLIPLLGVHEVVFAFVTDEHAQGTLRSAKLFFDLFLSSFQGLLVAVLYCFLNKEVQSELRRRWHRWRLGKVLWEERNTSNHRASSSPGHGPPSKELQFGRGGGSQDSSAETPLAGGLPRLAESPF

[4] = molecular target: T2, hGIPR; assay: Functional cAMP activation in the presence of 0.1% casein (no HSA); conditions: in the presence of 0.1% casein (no HSA); geometric mean; read-out: Relative cAMP EC50, hGIPR;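 for Relative cAMP EC50, hGIPR: intracellular cAMP rise after 30 min at 37 °C read by HTRF against a standard curve, scaled between buffer alone (0%) and top control ligand concentration (100%), four-parameter fit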;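 for Relative cAMP EC50, hGLP-1R: intracellular cAMP rise after 30 min at 37 °C read by HTRF, normalized between buffer only (0%) and maximal control ligand (100%), four-parameter variable-slope fit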;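 for Relative cAMP EC50, hGcgR: intracellular cAMP rise after 30 min at 37 °C, read by HTRF against a cAMP standard curve, scaled from buffer only (0%) to maximal control ligand response (100%)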
[5] = molecular target: hGcgR (Homo sapiens, UniProt P47871); assay: as above; conditions: in the presence of 0.1% casein (no HSA); geometric mean; read-out: Relative cAMP EC50, hGcgR;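 note: intracellular cAMP rise after 30 min at 37 °C, read by HTRF against a cAMP standard curve, scaled from buffer only (0%) to maximal control ligand response (100%)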
hGcgR, sequence (P47871 26-477): as above

[6] = molecular target: T1, hGLP-1R; assay: as above; conditions: in the presence of 0.1% casein (no HSA); geometric mean; read-out: Relative cAMP EC50, hGLP-1R

Substance	EC50 [1]	EC50 [2]	EC50 [3]	EC50 [4]	EC50 [5]	EC50 [6]
H-Y[Aib]QGTFTSD[4Pal]S[Orn][αMeL]LDKK([γGlu-γGlu-C18 diacid])AQ[Aib]AFIE[αMeY]LIEGGPSSGAPPPSGS-NH2 [Example 941]	113 nM	22.1 nM	1430 nM	0.183 nM	11.7 nM	0.764 nM
H-Y[Aib]QGTFTSD[4Pal]S[Orn][αMeL]LDKK([γGlu-γGlu-C18 diacid])AQ[Aib]AFIE[αMeY]LLEGGPSSGAPPPSGS-NH2 [Example 942]	490 nM	28.3 nM	1560 nM	0.188 nM	6.32 nM	3.52 nM
H-Y[Aib]QGTFTSD[4Pal]S[Orn][αMeL]LDKK([γGlu-γGlu-C18 diacid])AQ[αMe4Pal]AFIEYLIAGGESSGAPPPSGSEE-NH2 [Example 964]	267 nM	21.4 nM	324 nM	0.288 nM	2.75 nM	2.67 nM
H-Y[Aib]QGTFTSD[4Pal]S[Orn][αMeL]LDKK([γGlu-γGlu-C18 diacid])AQ[αMe4Pal]AFIEYLIAGGPSSGAPPPSGSE-NH2 [Example 1009]	174 nM	9.72 nM	268 nM	0.13 nM	4.21 nM	2.1 nM
H-Y[Aib]QGTFTSD[4Pal]S[Orn][αMeL]LDKK([γGlu-γGlu-C18 diacid])AQ[αMe4Pal]AFIEYLIAGGPSSGEPPPSGE-NH2 [Example 979]	257 nM	19.2 nM	359 nM	0.181 nM	3.34 nM	2.72 nM
H-Y[Aib]QGTFTSD[4Pal]S[Orn][αMeL]LDKK([γGlu-γGlu-C18 diacid])AQ[αMe4Pal]AFIEYLIAGGPSSGEPPPSGTE-NH2 [Example 980]	290 nM	15.4 nM	239 nM	0.18 nM	2.41 nM	2.26 nM
H-Y[Aib]QGTFTSD[4Pal]S[Orn][αMeL]LDKK([γGlu-γGlu-C18 diacid])AQ[αMe4Pal]AFIEYLIAGGPSSGEPPPSGTEE-NH2 [Example 981]	330 nM	21.1 nM	477 nM	0.243 nM	3.7 nM	4.45 nM
H-Y[Aib]QGTFTSD[4Pal]S[Orn][αMeL]LDKK([γGlu-γGlu-C18 diacid])AQ[αMe4Pal]AFIEYLIAGGPSSGEPPPSGTEEE-NH2 [Example 982]	310 nM	19.4 nM	307 nM	0.328 nM	3.91 nM	4.94 nM
H-Y[Aib]QGTFTSD[4Pal]S[Orn][αMeL]LDKK([γGlu-γGlu-C18 diacid])AQ[αMe4Pal]AFIEYLIE[Aib]GPSSGAPPPSGS-NH2 [Example 865]	351 nM	10.8 nM	248 nM	0.0797 nM	1.48 nM	3.02 nM
H-Y[Aib]QGTFTSD[4Pal]S[Orn][αMeL]LDKK([γGlu-γGlu-C18 diacid])AQ[αMe4Pal]AFIE[αMe4Pal]LIEGGPSSGAPPPSGS-NH2 [Example 952]	439 nM	16.6 nM	266 nM	0.166 nM	2.4 nM	4.85 nM
H-Y[Aib]QGTFTSD[4Pal]S[Orn][αMeL]LDKK([γGlu-γGlu-C18 diacid])AQ[αMe4Pal]AFIE[αMe4Pal]LIEGGPSSGAPPPSGSEE-NH2 [Example 958]	850 nM	27.1 nM	340 nM	0.343 nM	3.17 nM	9.51 nM
H-Y[Aib]QGTFTSD[4Pal]S[Orn][αMeL]LDKK([γGlu-γGlu-C18 diacid])AQ[αMe4Pal]AFIE[αMe4Pal]LIE[Aib]GPSSGEPPPSGSE-NH2 [Example 990]	557 nM	9.87 nM	276 nM	0.115 nM	2.47 nM	5.78 nM
H-Y[Aib]QGTFTSD[4Pal]S[Orn][αMeL]LDKK([γGlu-γGlu-C18 diacid])AQ[αMe4Pal]AFIE[αMeY]LIAGGPSSGAPPPEGS-NH2 [Example 1015]	92.4 nM	9.08 nM	357 nM	0.0822 nM	3.53 nM	1.01 nM
H-Y[Aib]QGTFTSD[4Pal]S[Orn][αMeL]LDKK([γGlu-γGlu-C18 diacid])AQ[αMe4Pal]AFIE[αMeY]LIAGGPSSGEPPPSGS-NH2 [Example 1014]	86.4 nM	5.62 nM	277 nM	0.0412 nM	3.62 nM	0.718 nM
H-Y[Aib]QGTFTSD[4Pal]S[Orn][αMeL]LDKK([γGlu-γGlu-C18 diacid])AQ[αMe4Pal]AFIE[αMeY]LIEGGPSSGAPPPSGSEE-NH2 [Example 967]	345 nM	39.5 nM	508 nM	0.205 nM	1.94 nM	1.75 nM
H-Y[Aib]QGTFTSD[4Pal]S[Orn][αMeL]LDKK([γGlu-γGlu-γGlu-C18 diacid])AQ[αMe4Pal]AFIEYLIE[Aib]GPSSGAPPPSGS-NH2 [Example 866]	483 nM	23.8 nM	669 nM	0.148 nM	4.48 nM	4.01 nM
H-Y[Aib]QGTFTSD[4Pal]S[Orn][αMeL]LD[Orn]K([Glu-Glu-γGlu-C18 diacid])AQ[Aib]AFIE[αMeY]LLEGGPSSGAPPPSGSEE-NH2 [Example 1067]	2610 nM	86.4 nM	1860 nM	0.471 nM	12.6 nM	17.6 nM
H-Y[Aib]QGTFTSD[4Pal]S[Orn][αMeL]LD[Orn]K([Glu-γGlu-C18 diacid])AQ[Aib]AFIE[αMeY]LLEGGPSSGAPPPSGSEE-NH2 [Example 1066]	1850 nM	69.9 nM	4260 nM	0.446 nM	25.4 nM	9.8 nM
H-Y[Aib]QGTFTSD[4Pal]S[Orn][αMeL]LD[Orn]K([dE-γGlu-C18 diacid])AQ[αMe4Pal]AFIEYLIAGGPSSGAPPPSGSEE-NH2 [Example 1063]	626 nM	26.6 nM	2290 nM	0.318 nM	10.6 nM	6.96 nM
H-Y[Aib]QGTFTSD[4Pal]S[Orn][αMeL]LD[Orn]K([γGlu-γGlu-C18 diacid])AQ[Aib]AFIEYLLAGGPSSGAPPPSGSEE-NH2 [Example 1069]	1290 nM	39.5 nM	2160 nM	0.417 nM	21.2 nM	8.87 nM
H-Y[Aib]QGTFTSD[4Pal]S[Orn][αMeL]LD[Orn]K([γGlu-γGlu-C18 diacid])AQ[Aib]AFIE[αMeY]LLEGGPSSGAPPPSGSEE-NH2 [Example 1064]	912 nM	62.5 nM	1940 nM	0.556 nM	13.7 nM	7.89 nM
H-Y[Aib]QGTFTSD[4Pal]S[Orn][αMeL]LD[Orn]K([γGlu-γGlu-C18 diacid])AQ[αMe4Pal]AFIEYLIAGGPSSGEPPPSGE-NH2 [Example 983]	207 nM	19.4 nM	576 nM	0.289 nM	4.75 nM	2.35 nM
H-Y[Aib]QGTFTSD[4Pal]S[Orn][αMeL]LD[Orn]K([γGlu-γGlu-C18 diacid])AQ[αMe4Pal]AFIEYLIAGGPSSGEPPPSGTE-NH2 [Example 984]	160 nM	23.5 nM	409 nM	0.232 nM	4.5 nM	2.07 nM
H-Y[Aib]QGTFTSD[4Pal]S[Orn][αMeL]LD[Orn]K([γGlu-γGlu-C18 diacid])AQ[αMe4Pal]AFIEYLIAGGPSSGEPPPSGTEE-NH2 [Example 985]	217 nM	24 nM	374 nM	0.34 nM	5.41 nM	2.93 nM
H-Y[Aib]QGTFTSD[4Pal]S[Orn][αMeL]LD[Orn]K([γGlu-γGlu-C18 diacid])AQ[αMe4Pal]AFIEYLIE[Aib]GPSSGAPPPSGS-NH2 [Example 939]	287 nM	14.1 nM	423 nM	0.143 nM	2.41 nM	2.75 nM
H-Y[Aib]QGTFTSD[4Pal]S[Orn][αMeL]LD[Orn]K([γGlu-γGlu-C18 diacid])AQ[αMe4Pal]AFIEYLLAGGPSSGAPPPSGSEE-NH2 [Example 1068]	1330 nM	20.2 nM	295 nM	0.211 nM	4.8 nM	11.6 nM
H-Y[Aib]QGTFTSD[4Pal]S[Orn][αMeL]LD[Orn]K([γGlu-γGlu-C18 diacid])AQ[αMe4Pal]AFIE[αMe4Pal]LIE[Aib]GPSSGEPPPSGS-NH2 [Example 991]	315 nM	14.8 nM	405 nM	0.119 nM	3.03 nM	3.91 nM
